What was measured:
[1] = system: rat liver ACAT (acylCoa:cholesterol acyltransferase); assay: In vitro inhibition of ACAT activity, rat liver microsomal fraction; format: biochemical; conditions: rat liver microsomes, concentration 2 μM, versus enzyme activity in 1% dimethylsulfoxide
Procedure: (§1) The biological activity of the substances was evaluated based on the in vitro inhibition of acylCoa:cholesterol acyltransferase (ACAT) activity. The enzyme was obtained from the microsomal fraction of rat liver cells and rabbit intestinal mucosa of animals fed with cholesterol. The substrates for the enzyme reaction included exogenous oleoyl co-enzyme A and endogenous cholesterol. ^14C-oleoyl co-enzyme A conversion to ^14C-cholesteryl oleate was monitored. From the mixture of extracted lipids, cholesteryl oleate was separated using thin-layer chromatography, and was quantified radiometrically. ACAT specific activity was expressed as the amount of cholesteryl oleate formed per minute per mg microsomal protein.
(§2) Efficiency was calculated as compared to enzyme activity measured in the presence of 1% dimethylsulfoxide used as the solvent to prepare solutions of the substances tested.

[2] = system: rabbit intestinal mucosa ACAT (acylCoa:cholesterol acyltransferase); assay: In vitro inhibition of ACAT activity, rabbit intestinal mucosa microsomal fraction; format: biochemical; conditions: rabbit intestinal mucosa microsomes, concentration 2 μM, versus enzyme activity in 1% dimethylsulfoxide
Procedure: as §1, §2

Compound | Efficiency (%) liver (ACAT inhibition) [1] [%] | Efficiency (%) mucosa (ACAT inhibition) [2] [%]
Cc1cccc(C)c1NC(=O)Nc1ccc(Sc2ccc(N)cc2)cc1 [Example 58, 1-(2,6-Dimethylphenyl)-3-((4′-aminophenylthio)-phenyl)-urea] | 21 | 29
O=C(Nc1ccc(Oc2ccc([N+](=O)[O-])cc2)cc1)Nc1ccccn1 [Example 18] | 26 | 34
O=C(Nc1ccc(Sc2ccc([N+](=O)[O-])cc2)cc1)Nc1ccccc1Cl [Example 30, 1-(2-Chlorophenyl)-3-((4′-nitrophenylthio)-phenyl)-urea] | 20 | 26
Cc1ccc(NC(=O)Nc2ccc(Oc3ccc([N+](=O)[O-])cc3)cc2)cc1 [Example 10, 1-(4-Methylphenyl)-3-((4′-nitrophenoxy)-phenyl)-urea] | 0 | 0
O=C(Nc1ccc(Sc2ccc([N+](=O)[O-])cc2)cc1)Nc1ccc2ccccc2c1 [Example 50, 1-(2-Naphthyl)-3-((4′-nitrophenylthio)-phenyl)-urea] | 16 | 31
Cc1cccc(C)c1NC(=O)Nc1ccc(Oc2ccc([N+](=O)[O-])cc2)cc1 [Example 12, 1-(2,6-Dimethylphenyl)-3-((4′-nitrophenoxy)-phenyl)-urea] | 41 | 65
O=C(Nc1ccc(Oc2ccc([N+](=O)[O-])cc2)cc1)Nc1ccccc1C(F)(F)F [Example 15, 1-(2-Trifluoromethylphenyl)-3-((4′-nitrophenoxy)-phenyl)-urea] | 46 | 42
O=C(Nc1ccc(Sc2ccc([N+](=O)[O-])cc2)cc1)Nc1c(F)cccc1F [Example 29, 1-(2,6-Difluorophenyl)-3-((4′-nitrophenylthio)-phenyl)-urea] | 11 | 25
O=C(Nc1ccc(Sc2ccc([N+](=O)[O-])cc2)cc1)NC12CC3CC(CC(C3)C1)C2 [Example 51, 1-(1-Adamantyl)-3-((4′-nitrophenylthio)-phenyl)-urea] | 45 | 56
O=C(Nc1ccc(Sc2ccc([N+](=O)[O-])cc2)cc1)Nc1cccc2ccccc12 [Example 49, 1-(1-Naphthyl)-3-((4′-nitrophenylthio)-phenyl)-urea] | 24 | 36
O=C(Nc1ccc(Sc2ccc([N+](=O)[O-])cc2)cc1)Nc1ccccn1 [Example 46, 1-(2-Pyridyl)-3-((4′-nitrophenylthio)-phenyl)-urea] | 48 | 46
O=C(Nc1ccc(Sc2ccc([N+](=O)[O-])cc2)cc1)Nc1cc(F)ccc1F [Example 28, 1-(2,5-Difluorophenyl)-3-((4′-nitrophenylthio)-phenyl)-urea] | 0 | 16
1-(2,6-Dimethylphenyl)-3-((4′-nitrophenylthio)-phenyl)-urea [Example 40] | 23 | 34
O=C(Nc1ccc(Oc2ccc([N+](=O)[O-])cc2)cc1)Nc1cccc2ccccc12 [Example 21] | 14 | 22
O=C(Nc1ccc(Oc2ccc([N+](=O)[O-])cc2)cc1)Nc1ccccc1Cl [Example 5, 1-(2-Chlorophenyl)-3-((4′-nitrophenoxy)-phenyl)-urea] | 0 | 0
O=C(Nc1ccncc1)Nc1ccc(Sc2ccc([N+](=O)[O-])cc2)cc1 [Example 48, 1-(4-Pyridyl)-3-((4′-nitrophenylthio)-phenyl)-urea] | 53 | 35
O=C(Nc1ccc(F)cc1)Nc1ccc(Sc2ccc([N+](=O)[O-])cc2)cc1 [Example 26, 1-(4-Fluorophenyl)-3-((4′-nitrophenylthio)-phenyl)-urea] | 25 | 27
O=C(Nc1ccc(Oc2ccc([N+](=O)[O-])cc2)cc1)Nc1ccc2ccccc2c1 [Example 22] | 0 | 12
1-(2,4-Dimethylphenyl)-3-((4′-nitrophenylthio)-phenyl)-urea [Example 39] | 19 | 31
O=C(Nc1ccc(Cl)cc1)Nc1ccc(Sc2ccc([N+](=O)[O-])cc2)cc1 [Example 31, 1-(4-Chlorophenyl)-3-((4′-nitrophenylthio)-phenyl)-urea] | 12 | 21
Cc1ccc(NC(=O)Nc2ccc(Sc3ccc([N+](=O)[O-])cc3)cc2)cc1 [Example 38, 1-(4-Methylphenyl)-3-((4′-nitrophenylthio)-phenyl)-urea] | 21 | 32
O=C(Nc1ccncc1)Nc1ccc(Oc2ccc([N+](=O)[O-])cc2)cc1 [Example 20] | 11 | 17
CC(C)c1cccc(C(C)C)c1NC(=O)Nc1ccc(Oc2ccc([N+](=O)[O-])cc2)cc1 [Example 14, 1-(2,6-Di-(methylethyl)-phenyl)-3-((4′-nitrophenoxy)-phenyl)-urea] | 50 | 67
O=C(Nc1ccc(Sc2ccc([N+](=O)[O-])cc2)cc1)Nc1ccc(F)cc1F [Example 27, 1-(2,4-Difluorophenyl)-3-((4′-nitrophenylthio)-phenyl)-urea] | 16 | 23
O=C(Nc1ccc(Sc2ccc([N+](=O)[O-])cc2)cc1)Nc1cc(Cl)cc(Cl)c1 [Example 36, 1-(3,5-Dichlorophenyl)-3-((4′-nitrophenylthio)-phenyl)-urea] | 0 | 0

— patent US6444691B1, “1,3-disubstituted ureas as ACAT inhibitors, and method of preparing thereof” (Solvakofarma, a.s., priority 1997, dated 2002)
